Measured values from ChEMBL document CHEMBL1148124, “New lanostanoids, elfvingic acids A-H, from the fruit body of Elfvingia applanata” (J Nat Prod, 2002).
In brackets after ≈: the same amount, converted by molar mass.

Columns and labels:
[1] = Cytotoxicity against human KATO III cells after 72 hrs by MTT assay; type: functional, cell-based, KATO III cell
[2] = tested on: Ehrlich; assay: Cytotoxicity against mouse Ehrlich cells after 72 hrs by MTT assay; type: functional, cell-based

| SMILES | IC50 [1] [µg/mL] | IC50 [2] [µg/mL] |
| --- | --- | --- |
| CC(C)c1cccc(=O)c(O)c1 [HINOKITIOL] | 0.6 (≈ 3.65 µM) | 0.6 (≈ 3.65 µM) |
| C=C(C)[C@@H]1C[C@H]2O[C@@]23C(=CC(=O)[C@]2(C)[C@@H](/C(C)=C\C(O)CC(C)C(=O)O)C[C@@H](O)[C@]23C)[C@@]1(C)CCC(=O)OC (some centres undefined) | 1.1 (≈ 2.02 µM) | 1.1 (≈ 2.02 µM) |
